Assay results as given in patent US6756045B1, “Topically applied idebenone-containing agent with protective and regenerative effect” (priority 1999, dated 2004).

Assays:
[1] = system: macrophage LDL oxidation systems; assay: macrophage LDL oxidation system, lipid hydroperoxides by HPLC chemiluminescence; type: cell-based; conditions: for antioxidative effect in combination with tocopherol: combined with tocopherol, in the course of time, after 24 hours
Excerpt: In separate pre-tests, idebenone was used in the macrophage LDL oxidation systems as anti-oxidant by way of comparison to alpha-tocopherol, ascorbic acid, coenzyme Q-10 and glutathione. This system is suitable for the simulation of cell-promoted oxidation of lipids induced by lipoxygenase, such as for example occurs due to UV radiation. To determine the antioxidative effect of the individual substances, the amount of primary degradation products of lipid peroxidation, the lipid hydroperoxides, occurring in the course of time after 8 or 24 hours was determined by means of an HPLC chemiluminescence method (E. Wieland et al., Fresenius J. Anal. Chem., 343, 62-63 (1992)). […] The values given in the following tables relate to nmoles of measured lipid hydroperoxides per mg of LDL protein.

tissue = conditions: in the tissue under pro-oxidative conditions; cited from earlier work
[2] = oral administration; cited from earlier work
[3] = oxidation system A (Mk + LDL), 10 μmoles/litre antioxidant, 8 hours
[4] = oxidation system A (Mk + LDL), 10 μmoles/litre antioxidant, 24 hours
[5] = oxidation system B (Mk + LDL + 100 μmoles/liter α-tocopherol), 10 μmoles/litre further antioxidant, 8 hours
[6] = oxidation system B (Mk + LDL + 100 μmoles/liter α-tocopherol), 10 μmoles/litre further antioxidant, 24 hours
[7] = oxidation system A (Mk + LDL), 50 μmoles/litre antioxidant, 8 hours
[8] = oxidation system A (Mk + LDL), 50 μmoles/litre antioxidant, 24 hours
[9] = oxidation system B (Mk + LDL + 100 μmoles/liter α-tocopherol), 50 μmoles/litre further antioxidant, 8 hours
[10] = oxidation system B (Mk + LDL + 100 μmoles/liter α-tocopherol), 50 μmoles/litre further antioxidant, 24 hours

SMILES	lipid hydroperoxides [1, 3]	lipid hydroperoxides [1, 4]	lipid hydroperoxides [1, 5]	lipid hydroperoxides [1, 6]	antioxidative effect in combination with tocopherol [1]	lipid hydroperoxides [1, 7]	lipid hydroperoxides [1, 8]	lipid hydroperoxides [1, 9]	lipid hydroperoxides [1, 10]	further results
Cc1c(C)c2c(c(C)c1O)CC[C@@](C)(CCC[C@H](C)CCC[C@H](C)CCCC(C)C)O2 [α-tocopherol, alpha-tocopherol]										lipid hydroperoxides ([1]; oxidation system A (Mk + LDL), 100 μmoles/litre antioxidant, 8 hours): 32.8 nmoles per mg of LDL protein; lipid hydroperoxides ([1]; oxidation system A (Mk + LDL), 100 μmoles/litre antioxidant, 24 hours): 198.0 nmoles per mg of LDL protein
COC1=C(OC)C(=O)C(C/C=C(\C)CC/C=C(\C)CC/C=C(\C)CC/C=C(\C)CC/C=C(\C)CC/C=C(\C)CC/C=C(\C)CC/C=C(\C)CC/C=C(\C)CCC=C(C)C)=C(C)C1=O [coenzyme Q-10]	69 nmoles per mg of LDL protein	115.8 nmoles per mg of LDL protein	26.8 nmoles per mg of LDL protein	143.7 nmoles per mg of LDL protein						
O=C1O[C@H]([C@@H](O)CO)C(O)=C1O [ascorbic acid]					significantly lower antioxidative effect	0 nmoles per mg of LDL protein	1.7 nmoles per mg of LDL protein	1.7 nmoles per mg of LDL protein	25.3 nmoles per mg of LDL protein	
COC1=C(OC)C(=O)C(CCCCCCCCCCO)=C(C)C1=O [idebenone, 6-(10-hydroxydecyl)-2,3-dimethoxy-5-methyl-1,4-benzoquinone]	0 nmoles per mg of LDL protein	0 nmoles per mg of LDL protein	1.9 nmoles per mg of LDL protein	2.6 nmoles per mg of LDL protein	reliably intercept the pro-oxidative effect of tocopherol oxidation products					protection against loss of alpha-tocopherol and coenzyme Q-10 (tissue): protection against the loss of alpha-tocopherol and coenzyme Q-10; toxic effects [2]: no toxic effects; antioxidative effect compared to ascorbic acid, alpha-tocopherol and glutathione ([1]; idebenone 10 μmoles/liter vs ascorbic acid 50, alpha-tocopherol 100, glutathione 50 μmoles/liter): clearly stronger antioxidative effect
N[C@@H](CCC(=O)N[C@@H](CS)C(=O)NCC(=O)O)C(=O)O [glutathione]						51.7 nmoles per mg of LDL protein	119.0 nmoles per mg of LDL protein	23.3 nmoles per mg of LDL protein	129.8 nmoles per mg of LDL protein	
